Measurements as given in patent US20140349340A1, “MBTH-LIKE PROTEINS IN THE PRODUCTION OF SEMI SYNTHETIC ANTIBIOTICS” (DSM SINOCHEM PHARMACEUTICALS NETHERLANDS B.V., priority 2012, published 2014).

Tests used:
Assay type in all cases: biochemical
[1] = PPi release assay, adenylation activity with D-phenylglycine; details: for Formed PPi: substrate D-PG 1 mM
Text: (§1) These assays use inorganic pyrophosphatases to convert PPi produced during aminoacyl-AMP formation to orthophosphate (Pi). To measure Pi concentrations some of these assays use molybdate/malachite green reagent for colorimetric detection (McQuade et al. 2008) or, as used in the context of the present invention, a shift in absorbance maximum by conversion of 7-methyl-6-thioguanosine (MESG) by purine nucleoside phosphorylase (Ehmann D. E. et al. (Proc. Natl. Acad. Sci. (2000) 97, 2509-2514) or Daniel & Aldrich (Anal. Biochem. (2010) 404, 56-63)).
(§2) To determine the adenylation activity of the adenylation domains, the Enzchek® pyrophosphate assay kit (Life Technologies) was used as described by Ehmann D. E. et al. (Proc Nat Acad Science (2000) 97, 2509-2514) with small modifications. The reactions were performed 96 wells UV/Vis transparent plates (BD Falcon). The reaction mixture comprises 50 mM HEPES pH 8.0, 10 mM MgCl2, 5 mM ATP, 75 mM DTT, 0.03 U Inorganic Pyrophosphatase (IP), 1 U Purine Nucleoside Phosphorylase (PNP) and 0.2 mM MESG in a volume of 70 μl. Next 20 μl (around 0.5-2 μM final concentration) of purified A(T) domain, with or without co-purification of the MbtH like helper protein was added and the reaction was pre-incubated for 15 minutes at RT to reduce contaminating Pi. Following the pre-incubation, 10 μl of a 10 mM or 1 mM solution of the appropriate amino acid depending on the performed specificity determination was added to initiate the adenylation reaction and the absorbance at 360 nm was measured using a TECAN I Control spectrophotometer. Absorbance measurements were made every 5 to 10 min over a period of up to 240 min. A reaction with addition of 10 μl MilliQ water instead was used to determine and subtract the background absorbance. As substrates the following amino acids were used: D- or L-phenylalanine, D- or L-hydroxyphenylglycine, D- or L-phenylglycine, L-tryptophan, L-valine, L-cysteine, and L-leucine.

[2] = PPi release assay, adenylation activity with D-hydroxyphenylglycine
Text: as §1, §2

[3] = PPi release assay, adenylation activity with L-phenylalanine; details: substrate L-phenylalanine
Text: as §1, §2

[4] = PPi release assay, adenylation activity with D-phenylalanine; details: substrate D-phenylalanine
Text: as §1, §2

[5] = PPi release assay, adenylation activity with L-hydroxyphenylglycine; details: for adenylation activity (absorption 360 nm, PPi release assay) / adenylation activity (PPi release assay): substrate L-hydroxyphenylglycine
Text: as §1, §2

[6] = PPi release assay, adenylation activity with L-phenylglycine; details: for Formed PPi: substrate L-PG 1 mM
Text: as §1, §2

[7] = co-purified with MbtH-like protein Tcp 13
[8] = co-purified with MbtH-like protein Tcp 17
[9] = co-purified with MbtH-like protein VMbtH
[10] = substrate D-hydroxyphenylglycine, protein alone, without MbtH-like protein
[11] = co-purified with MbtH-like protein Tcp13
[12] = protein alone, without MbtH-like protein
[13] = co-purified with Tcp13, or Tcp17 or VMbtH

Question: What does the source list for “Veg8_M1_A: purified adenylation domain of Veg8 module M1 (SEQ ID NO: 6), maltose binding protein fusion, His-tag; uncultured soil bacterium”?
Answer: Formed PPi [1, 7]: 0.01 mM/min/mM enzyme; Formed PPi [1, 8]: 0.02 mM/min/mM enzyme; Formed PPi [1, 9]: 0.02 mM/min/mM enzyme; Formed PPi ([2]; substrate D-HPG 0.1 mM, co-purified with MbtH-like protein Tcp 13): 0.14 mM/min/mM enzyme; Formed PPi ([2]; substrate D-HPG 0.1 mM, co-purified with MbtH-like protein Tcp 17): 0.17 mM/min/mM enzyme; Formed PPi ([2]; substrate D-HPG 0.1 mM, co-purified with MbtH-like protein VMbtH): 0.18 mM/min/mM enzyme; Formed PPi ([2]; substrate D-HPG 1 mM, co-purified with MbtH-like protein Tcp 13): 0.92 mM/min/mM enzyme; Formed PPi ([2]; substrate D-HPG 1 mM, co-purified with MbtH-like protein Tcp 17): 1.03 mM/min/mM enzyme; Formed PPi ([2]; substrate D-HPG 1 mM, co-purified with MbtH-like protein VMbtH): 1.39 mM/min/mM enzyme; adenylation activity (absorption 360 nm, PPi release assay) ([2]; substrate D-hydroxyphenylglycine, co-purified with MbtH-like protein Tcp13): clear adenylation activity; adenylation activity (absorption 360 nm, PPi release assay) [2, 10]: no activity; adenylation activity (absorption 360 nm, PPi release assay) [3, 11]: no activity; adenylation activity (absorption 360 nm, PPi release assay) [3, 12]: no activity; adenylation activity (absorption 360 nm, PPi release assay) [4, 11]: no activity; adenylation activity (absorption 360 nm, PPi release assay) [4, 12]: no activity; Formed PPi ([5]; substrate L-HPG 0.1 mM, co-purified with MbtH-like protein Tcp 13): 0.56 mM/min/mM enzyme; Formed PPi ([5]; substrate L-HPG 0.1 mM, co-purified with MbtH-like protein Tcp 17): 0.70 mM/min/mM enzyme; Formed PPi ([5]; substrate L-HPG 0.1 mM, co-purified with MbtH-like protein VMbtH): 0.61 mM/min/mM enzyme; Formed PPi ([5]; substrate L-HPG 1 mM, co-purified with MbtH-like protein Tcp 13): 0.59 mM/min/mM enzyme; Formed PPi ([5]; substrate L-HPG 1 mM, co-purified with MbtH-like protein Tcp 17): 0.64 mM/min/mM enzyme; Formed PPi ([5]; substrate L-HPG 1 mM, co-purified with MbtH-like protein VMbtH): 0.61 mM/min/mM enzyme; adenylation activity (absorption 360 nm, PPi release assay) [5, 11]: clear adenylation activity; adenylation activity (absorption 360 nm, PPi release assay) [5, 12]: very minor adenylation activity; Formed PPi [6, 7]: 0.17 mM/min/mM enzyme; Formed PPi [6, 8]: 0.14 mM/min/mM enzyme; Formed PPi [6, 9]: 0.20 mM/min/mM enzyme

Question: For “BpsB_M1_A: purified adenylation domain of BpsB module M1 (SEQ ID NO: 26); Amycolatopsis balhimycina”, which “adenylation activity (PPi release assay)” value ([1]; substrate D-phenylglycine, co-purified with Tcp13, or Tcp17 or VMbtH) is on record?
Answer: The value was “no adenylation activity”.

Question: And the “adenylation activity (PPi release assay)” value ([2]; substrate D-hydroxyphenylglycine, co-purified with Tcp13, or Tcp17 or VMbtH)?
Answer: The value was “no adenylation activity”.

Question: And the “adenylation activity (absorption 360 nm, PPi release assay)” value [2, 10]?
Answer: Its value is “No adenylation activity”.

Question: What about the “adenylation activity (PPi release assay)” value [3, 13] of the same substance?
Answer: The value was “no adenylation activity”.

Question: And the “adenylation activity (absorption 360 nm, PPi release assay)” value [3, 12]?
Answer: Its value is “No adenylation activity”.

Question: And the “adenylation activity (PPi release assay)” value [4, 13]?
Answer: Its value is “no adenylation activity”.

Question: And the “adenylation activity (absorption 360 nm, PPi release assay)” value [4, 12]?
Answer: The value was “No adenylation activity”.

Question: What about the “adenylation activity (PPi release assay)” value ([5]; co-purified with MbtH-like protein BMbtH) of the same substance?
Answer: The value was “confirmed its activity”.

Question: What about the “adenylation activity (PPi release assay)” value [5, 13] of the same substance?
Answer: Its value is “no adenylation activity”.

Question: What about the “adenylation activity (absorption 360 nm, PPi release assay)” value [5, 12] of the same substance?
Answer: The value was “No adenylation activity”.

Question: And the “adenylation activity (PPi release assay)” value ([6]; substrate L-phenylglycine, co-purified with Tcp13, or Tcp17 or VMbtH)?
Answer: Its value is “no adenylation activity”.
